Among the data in patent US20170305893A1 (Thomas Helledays Stiftelse for Medicinsk Forskning, priority 2014, published 2017) are IC50 and antiproliferative activity values, retold here.

One test concerns the target T1, DCTPP1 (Homo sapiens, UniProt Q9H773).
T1 sequence (Q9H773 1-170): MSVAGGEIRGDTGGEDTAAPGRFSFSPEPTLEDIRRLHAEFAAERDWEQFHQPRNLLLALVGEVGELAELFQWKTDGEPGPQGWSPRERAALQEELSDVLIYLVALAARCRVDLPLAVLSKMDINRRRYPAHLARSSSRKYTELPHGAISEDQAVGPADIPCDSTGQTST
The test is described as follows: DCTPP1 inhibition assay (malachite green). The class given is biochemical. Conditions: 35 nM DCTPP1, 35 μM dCTP, 20 minutes at 22° C.; read-out: IC50. The protocol:
DCTPP1 catalyzes the hydrolysis of dCTP to dCMP and PPi. By coupling the reaction to pyrophosphatase added in excess PPi is converted to Pi that can be detected by using the malachite green assay reagent. […] DCTPP1 diluted in assay buffer (100 mM Tris-acetate, 100 mM KCl, 10 mM magnesium acetate, 1 mM DTT and 0.005% Tween 20) fortified with E. coli pyrophosphatase (0.2 U/mL) is added to a final concentration of 35 nM. dCTP diluted in assay buffer is added to a final concentration of 35 μM. The reaction mixture is incubated with shaking for 20 minutes at 22° C. To 100 μl reaction mixture is added […] Malachite green assay reagent (0.095% Malachite green in 17% H2SO4, 1.5% Ammonium molybdate, 0.17% Tween 20) added followed by incubation with shaking for 15 minutes at 22° C. The absorbance of the assay plate is read at 630 nm using a SpectraMax plate reader (Molecular Devices).
As to `Cc1nc2c([N+](=O)[O-])c(Cl)c(Cl)cc2n1Cc1ccc(B(O)O)cc1` [Compound 2.2.44, (4-((5,6-dichloro-2-methyl-4-nitro-1H-benzo[d]imidazol-1-yl)methyl)phenyl)boronic acid], the IC50 turned out to be 47 nM.
Take `O=[N+]([O-])c1c(Cl)c(Cl)cc2c1nc(C1CC1)n2Cc1ccc(B(O)O)cc1` [Compound 2.2.45, (4-((5,6-dichloro-2-cyclopropyl-4-nitro-1H-benzo[d]imidazol-1-yl)methyl)phenyl)boronic acid]: the IC50 worked out at 27 nM.
For the molecule `Cc1nc2c([N+](=O)[O-])c(Cl)c(Cl)cc2n1Cc1ccc(B2OC(C)(C)C(C)(C)O2)cc1` [Compound 2.2.49, 5,6-dichloro-2-methyl-4-nitro-1-(4-(4,4,5,5-tetramethyl-1,3,2-dioxaborolan-2-yl)benzyl)-1H-benzo[d]imidazole], the IC50 came to 30 nM.
Turning to `Cc1nc2c([N+](=O)[O-])c(Cl)c(Cl)cc2n1Cc1ccc(B2OC(=O)CN(C)CC(=O)O2)cc1` [Compound 2.2.50, 2-(4-((5,6-dichloro-2-methyl-4-nitro-1H-benzo[d]imidazol-1-yl)methyl)phenyl)-6-methyl-1,3,6,2-dioxazaborocane-4,8-dione], the IC50 is 44 nM.
The same measure, in the same setting: in the case of `COc1ccc(Cn2c(C(F)(F)F)nc3c([N+](=O)[O-])c(C)c(C)cc32)cc1` [Compound 2.2.58, 1-(4-methoxybenzyl)-5,6-dimethyl-4-nitro-2-(trifluoromethyl)-1H-benzo[d]imidazole] it was 14 nM; in that of `Cc1cc2c(nc(C)n2Cc2ccc(B(O)O)cc2)c([N+](=O)[O-])c1C` [Compound 2.2.60, (4-((2,5,6-trimethyl-4-nitro-1H-benzo[d]imidazol-1-yl)methyl)phenyl)boronic acid], 65 nM.

The same test, now with this note: 35 nM DCTPP1, 35 μM dCTP, 20 minutes at 22° C.; read-out: IC50 (nM), class.
For `Cc1nc2c([N+](=O)[O-])c(Cl)c(Cl)cc2n1Cc1ccc(S(C)(=O)=O)cc1` [Compound 2.2.41, 5,6-dichloro-2-methyl-1-(4-(methylsulfonyl)benzyl)-4-nitro-1H-benzo[d]imidazole], the IC50 is 100 to 500 nM.
On the same count and under the same terms, in the case of `Cc1nc(Cn2c(C)nc3c([N+](=O)[O-])c(Cl)c(Cl)cc32)cs1` [Compound 2.2.42, 4-((5,6-dichloro-2-methyl-4-nitro-1H-benzo[d]imidazol-1-yl)methyl)-2-methylthiazole] it was 100 to 500 nM.
For the molecule `Cc1nc2c([N+](=O)[O-])c(Cl)c(Cl)cc2n1Cc1ccc(Cl)nc1` [Compound 2.2.43, 5,6-dichloro-1-((6-chloropyridin-3-yl)methyl)-2-methyl-4-nitro-1H-benzo[d]imidazole], the concentration for half-maximal inhibition (IC50) is 100 to 500 nM.
Take `O=[N+]([O-])c1c(Cl)c(Cl)cc2c1nc(C1CC1)n2Cc1ccc(B(O)O)cc1` [Compound 2.2.45, (4-((5,6-dichloro-2-cyclopropyl-4-nitro-1H-benzo[d]imidazol-1-yl)methyl)phenyl)boronic acid]: the IC50 is < 100 nM.
With `Cc1nc2c([N+](=O)[O-])c(Cl)c(Cl)cc2n1Cc1ccccc1B(O)O` [Compound 2.2.46, (2-((5,6-dichloro-2-methyl-4-nitro-1H-benzo[d]imidazol-1-yl)methyl)phenyl)boronic acid], the IC50 was < 100 nM.
With `Cc1nc2c([N+](=O)[O-])c(Cl)c(Cl)cc2n1Cc1cccc(B(O)O)c1` [Compound 2.2.47, (3-((5,6-dichloro-2-methyl-4-nitro-1H-benzo[d]imidazol-1-yl)methyl)phenyl)boronic acid], the IC50 was < 100 nM.
For the molecule `Cc1nc2c([N+](=O)[O-])c(Cl)c(Cl)cc2n1CCc1ccc(B(O)O)cc1` [Compound 2.2.51, (4-(2-(5,6-dichloro-2-methyl-4-nitro-1H-benzo[d]imidazol-1-yl)ethyl)phenyl)boronic acid], the IC50 fell in the range of 100 to 500 nM.
Consider `COc1cc(Cn2c(C)nc3c([N+](=O)[O-])c(C)c(C)cc32)cc(OC)c1OC` [Compound 2.2.52, 2,5,6-trimethyl-4-nitro-1-(3,4,5-trimethoxybenzyl)-1H-benzo[d]imidazole], for which the IC50 is ≥ 1000 nM.
As to `Cc1cc2c(nc(C)n2Cc2cc3c(cc2Cl)OCO3)c([N+](=O)[O-])c1C` [Compound 2.2.53, 1-((6-chlorobenzo[d][1,3]dioxol-5-yl)methyl)-2,5,6-trimethyl-4-nitro-1H-benzo[d]imidazole], the IC50 was ≥ 1000 nM.
With `COc1ccc(Cn2c(C)nc3c([N+](=O)[O-])c(C)c(C)cc32)cc1` [Compound 2.2.54, 1-(4-methoxybenzyl)-2,5,6-trimethyl-4-nitro-1H-benzo[d]imidazole], the IC50 was < 100 nM.
On the same count and under the same terms, the value for `Cc1cc2c(nc(C)n2Cc2ccc(Cl)cc2)c([N+](=O)[O-])c1C` [Compound 2.2.55, 1-(4-chlorobenzyl)-2,5,6-trimethyl-4-nitro-1H-benzo[d]imidazole] was < 100 nM; that for `Cc1cc2c(nc(C)n2Cc2ccc(F)cc2)c([N+](=O)[O-])c1C` [Compound 2.2.56, 1-(4-fluorobenzyl)-2,5,6-trimethyl-4-nitro-1H-benzo[d]imidazole] was 100 to 500 nM.
Take `Cc1cc2c(nc(C)n2Cc2ccc(OC(F)(F)F)cc2)c([N+](=O)[O-])c1C` [Compound 2.2.57, 2,5,6-trimethyl-4-nitro-1-(4-(trifluoromethoxy)benzyl)-1H-benzo[d]imidazole]: the half-maximal inhibitory concentration (IC50) was 100 to 500 nM.
The same measure, in the same setting: in the case of `Cc1cc2c(nc(C)n2C(C)c2ccccc2)c([N+](=O)[O-])c1C` (stereo not drawn) [Compound 2.2.59, 2,5,6-trimethyl-4-nitro-1-(1-phenylethyl)-1H-benzo[d]imidazole] it was 100 to 500 nM.
As for `Cc1cc2c(nc(C(F)(F)F)n2Cc2ccc(B(O)O)cc2)c([N+](=O)[O-])c1C` [Compound 2.2.61, (4-((5,6-dimethyl-4-nitro-2-(trifluoromethyl)-1H-benzo[d]imidazol-1-yl)methyl)phenyl)boronic acid], the IC50 is < 100 nM.
In the case of `CC1(C)CC(C)(C)c2c1cc1c(cnn1Cc1ccc(B(O)O)cc1)c2[N+](=O)[O-]` [Compound 2.2.64], the IC50 was ≥ 1000 nM.
Regarding `COc1ccc(Cn2c(Cc3ccccc3)nc3cccc([N+](=O)[O-])c32)cc1` [Compound 2.3.1, 2-benzyl-1-(4-methoxybenzyl)-7-nitro-1H-benzo[d]imidazole], the IC50 is ≥ 1000 nM.
The same measure, in the same setting: in the case of `COc1ccc(Cn2c(OC)nc3cccc([N+](=O)[O-])c32)cc1` [Compound 2.3.2, 2-methoxy-1-(4-methoxybenzyl)-7-nitro-1H-benzo[d]imidazole] it was ≥ 1000 nM; in that of `COc1ccc(Cn2c(-c3ccccc3)nc3cccc([N+](=O)[O-])c32)cc1` [Compound 2.3.3, 1-(4-methoxybenzyl)-7-nitro-2-phenyl-1H-benzo[d]imidazole], ≥ 1000 nM.
Take `Cc1nc2cc(F)c(F)c([N+](=O)[O-])c2n1Cc1ccc(B(O)O)cc1` [Compound 2.3.4, (4-((5,6-difluoro-2-methyl-7-nitro-1H-benzo[d]imidazol-1-yl)methyl)phenyl)boronic acid]: the IC50 is 500 to 1000 nM.

The next test has as its system human cancer cell lines.
Test: not given
To be noted: three types of human cancer cell lines; cited from earlier work.
`COc1cc(C(=O)n2ccc3c([N+](=O)[O-])c(OC)ccc32)cc(OC)c1OC` [(5-methoxy-4-nitroindol-1-yl)(3,4,5-trimethoxy-phenyl)methanone]: the antiproliferative activity result is given as “does not show any activity”.

As a reminder, the IC50 is the midpoint of a concentration-inhibition curve.
